Measurements from ChEMBL document CHEMBL1201862, “PubChem BioAssay data set” (2004).
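Step 1: Grow cells in 96-well plates. Step 2: Expose to compound for 48 hours at 5 concentrations. Step 3: Interpolate endpoints linearly; if unreached, use highest concentration. The concentration for 50% growth inhibition is given as GI50.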 Activity calls are given as the source filed them. Cut-off read from the data, not from the text of the source: active = GI50 up to about 1.1 µM and inactive = higher.

Columns and labels:
Assay in all cases: NCI tumour cell line growth inhibition, 48 h
786-0 = system: 786-0
CAKI-1 = system: CAKI-1
CCRF-CEM = system: CCRF-CEM
DU-145 = system: DU-145
HOP-62 = system: HOP-62
HOP-92 = system: HOP-92
HT-29 = system: HT-29
IGROV-1 = system: IGROV-1
MDA-MB-435 = system: MDA-MB-435
NCI-H23 = system: NCI-H23
OVCAR-3 = system: OVCAR-3
OVCAR-4 = system: OVCAR-4
OVCAR-8 = system: OVCAR-8
SF-268 = system: SF-268
SF-295 = system: SF-295
SK-MEL-28 = system: SK-MEL-28
SK-MEL-5 = system: SK-MEL-5
U-251 = system: U-251
UACC-257 = system: UACC-257
UACC-62 = system: UACC-62

c1ccc([C@@H]2N[C@@]3(CO[Si](c4ccccc4)(c4ccccc4)c4ccccc4)CC[C@H]4CN[C@@H]2[C@H]43)cc1
GI50 (786-0): 12.4 µM (inactive)
GI50 (CAKI-1): 12.4 µM (inactive)
GI50 (CCRF-CEM): 16 µM (inactive)
GI50 (DU-145): 10.2 µM (inactive)
GI50 (HOP-62): 16.6 µM (inactive)
GI50 (HOP-92): 4.61 µM (inactive)
GI50 (HT-29): 2.55 µM (inactive)
GI50 (IGROV-1): 12.8 µM (inactive)
GI50 (MDA-MB-435): 8.51 µM (inactive)
GI50 (NCI-H23): 15.5 µM (inactive)
GI50 (OVCAR-3): 13.8 µM (inactive)
GI50 (OVCAR-4): 13.6 µM (inactive)
GI50 (OVCAR-8): 13.1 µM (inactive)
GI50 (SF-268): 4.63 µM (inactive)
GI50 (SF-295): 12.4 µM (inactive)
GI50 (SK-MEL-28): 14.9 µM (inactive)
GI50 (SK-MEL-5): 6.47 µM (inactive)
GI50 (U-251): 16.9 µM (inactive)
GI50 (UACC-257): 14.3 µM (inactive)
GI50 (UACC-62): 14.3 µM (inactive)

O=C1C=CC(=O)c2c1ccc1c3ccccc3n(Cc3ccccc3)c21
GI50 (786-0): 16.2 µM (inactive)
GI50 (CAKI-1): 17.2 µM (inactive)
GI50 (CCRF-CEM): 1.8 µM (inactive)
GI50 (DU-145): > 80.4 µM (inactive)
GI50 (HOP-62): > 100 µM (inactive)
GI50 (HOP-92): > 10 µM (inactive)
GI50 (HT-29): 24.9 µM (inactive)
GI50 (IGROV-1): 21.6 µM (inactive)
GI50 (MDA-MB-435): 26.1 µM (inactive)
GI50 (NCI-H23): 19.5 µM (inactive)
GI50 (OVCAR-3): 17.3 µM (inactive)
GI50 (OVCAR-4): 13.3 µM (inactive)
GI50 (OVCAR-8): 28.2 µM (inactive)
GI50 (SF-268): 32.1 µM (inactive)
GI50 (SF-295): > 100 µM (inactive)
GI50 (SK-MEL-28): 24.4 µM (inactive)
GI50 (SK-MEL-5): 32.3 µM (inactive)
GI50 (U-251): 51.9 µM (inactive)
GI50 (UACC-257): 19 µM (inactive)
GI50 (UACC-62): 25.4 µM (inactive)

Nc1ncc2c(n1)-c1ccccc1OC2N1CCOCC1 (stereo not given)
GI50 (786-0): > 100 µM (inactive)
GI50 (CAKI-1): > 100 µM (inactive)
GI50 (CCRF-CEM): > 100 µM (inactive)
GI50 (DU-145): > 100 µM (inactive)
GI50 (HOP-62): > 100 µM (inactive)
GI50 (HOP-92): > 100 µM (inactive)
GI50 (HT-29): > 100 µM (inactive)
GI50 (IGROV-1): > 100 µM (inactive)
GI50 (MDA-MB-435): > 100 µM (inactive)
GI50 (NCI-H23): > 100 µM (inactive)
GI50 (OVCAR-3): > 100 µM (inactive)
GI50 (OVCAR-4): > 100 µM (inactive)
GI50 (OVCAR-8): > 100 µM (inactive)
GI50 (SF-268): > 100 µM (inactive)
GI50 (SF-295): > 100 µM (inactive)
GI50 (SK-MEL-28): > 100 µM (inactive)
GI50 (SK-MEL-5): > 100 µM (inactive)
GI50 (U-251): > 100 µM (inactive)
GI50 (UACC-257): > 100 µM (inactive)
GI50 (UACC-62): > 100 µM (inactive)

COC(=O)[C@]12CC[C@H]3CN(C(=O)OCc4ccccc4)[C@H]([C@H]31)[C@H](c1ccco1)N2S(=O)(=O)c1ccc(C)cc1
GI50 (786-0): 17.5 µM (inactive)
GI50 (CAKI-1): 28.8 µM (inactive)
GI50 (CCRF-CEM): 11.4 µM (inactive)
GI50 (DU-145): 32.3 µM (inactive)
GI50 (HOP-62): 25.8 µM (inactive)
GI50 (HOP-92): 12.8 µM (inactive)
GI50 (HT-29): 20.6 µM (inactive)
GI50 (IGROV-1): 20.5 µM (inactive)
GI50 (MDA-MB-435): 23.3 µM (inactive)
GI50 (NCI-H23): 24.7 µM (inactive)
GI50 (OVCAR-3): 19.1 µM (inactive)
GI50 (OVCAR-4): 28.5 µM (inactive)
GI50 (OVCAR-8): 28.9 µM (inactive)
GI50 (SF-268): 24.2 µM (inactive)
GI50 (SF-295): 25.9 µM (inactive)
GI50 (SK-MEL-28): 39.2 µM (inactive)
GI50 (SK-MEL-5): 16.5 µM (inactive)
GI50 (U-251): 27.9 µM (inactive)
GI50 (UACC-257): 20.3 µM (inactive)
GI50 (UACC-62): 15 µM (inactive)

NC1CC(=O)c2csc(Cl)c21 (stereo not given)
GI50 (786-0): 1.55 µM (inactive)
GI50 (CAKI-1): 1.86 µM (inactive)
GI50 (CCRF-CEM): 0.778 µM (active)
GI50 (DU-145): 8.11 µM (inactive)
GI50 (HOP-62): 14.1 µM (inactive)
GI50 (HOP-92): 4.46 µM (inactive)
GI50 (HT-29): 10.3 µM (inactive)
GI50 (IGROV-1): 15.7 µM (inactive)
GI50 (MDA-MB-435): 12.8 µM (inactive)
GI50 (NCI-H23): 20.7 µM (inactive)
GI50 (OVCAR-3): 6.38 µM (inactive)
GI50 (OVCAR-4): 25.9 µM (inactive)
GI50 (OVCAR-8): 6.61 µM (inactive)
GI50 (SF-268): 10.1 µM (inactive)
GI50 (SF-295): 17.1 µM (inactive)
GI50 (SK-MEL-28): 17.1 µM (inactive)
GI50 (SK-MEL-5): 18.5 µM (inactive)
GI50 (U-251): 8.51 µM (inactive)
GI50 (UACC-257): 14.9 µM (inactive)
GI50 (UACC-62): 10 µM (inactive)

CC1=NN(C(=O)c2ccccc2O)C(=O)/C1=C/c1cccc([N+](=O)[O-])c1
GI50 (786-0): 2.47 µM (inactive)
GI50 (CAKI-1): 2.2 µM (inactive)
GI50 (CCRF-CEM): 2.77 µM (inactive)
GI50 (DU-145): 1.55 µM (inactive)
GI50 (HOP-62): 1.23 µM (inactive)
GI50 (HOP-92): 1.27 µM (inactive)
GI50 (HT-29): 38.7 µM (inactive)
GI50 (IGROV-1): 0.384 µM (active)
GI50 (MDA-MB-435): 0.451 µM (active)
GI50 (NCI-H23): 0.753 µM (active)
GI50 (OVCAR-3): 1.87 µM (inactive)
GI50 (OVCAR-4): 3.55 µM (inactive)
GI50 (OVCAR-8): 0.889 µM (active)
GI50 (SF-268): 1.25 µM (inactive)
GI50 (SF-295): 0.507 µM (active)
GI50 (SK-MEL-28): > 49.7 µM (inactive)
GI50 (SK-MEL-5): 2.57 µM (inactive)
GI50 (U-251): 0.512 µM (active)
GI50 (UACC-257): 5.73 µM (inactive)
GI50 (UACC-62): 0.408 µM (active)

O=[N+]([O-])c1cc(-[n+]2cc([O-])on2)ccc1F
GI50 (786-0): 11.7 µM (inactive)
GI50 (CAKI-1): 2.11 µM (inactive)
GI50 (CCRF-CEM): 11.8 µM (inactive)
GI50 (DU-145): 12.8 µM (inactive)
GI50 (HOP-62): 15.8 µM (inactive)
GI50 (HOP-92): 16.9 µM (inactive)
GI50 (HT-29): 14.9 µM (inactive)
GI50 (IGROV-1): 14.7 µM (inactive)
GI50 (MDA-MB-435): 16.2 µM (inactive)
GI50 (NCI-H23): 18.2 µM (inactive)
GI50 (OVCAR-3): 17 µM (inactive)
GI50 (OVCAR-4): 11.9 µM (inactive)
GI50 (OVCAR-8): 16.4 µM (inactive)
GI50 (SF-268): 14.8 µM (inactive)
GI50 (SF-295): 17.3 µM (inactive)
GI50 (SK-MEL-28): 15.4 µM (inactive)
GI50 (SK-MEL-5): 15 µM (inactive)
GI50 (U-251): 18.1 µM (inactive)
GI50 (UACC-257): 16.8 µM (inactive)
GI50 (UACC-62): 17.1 µM (inactive)
